This is an account of results in patent publication US5747503A, “Selective inhibitors of biogenic amine transporters” (priority 1996, dated 1998).

One assay addresses PCP site 1. In words: [^3 H](+)-MK801 binding to PCP site 1. Also noted: species or system guinea pig. The protocol:
Large batches of frozen membranes were prepared with minor modifications of published procedures (Rothman, et al. (1989), supra). Twenty to thirty frozen guinea pig brains with cerebellum were thawed for 15 minutes and homogenized with a Polytron in ice-cold 5 mM Tris-HCl, pH 8.0 (10 ml/brain). The homogenate was centrifuged at 37,000×g for 10 minutes, and the pellet was washed by resuspension in the same volume of buffer followed by recentrifugation. The pellets were resuspended in an equal volume of 5 mM Tris-HCl, pH 8.0, and the concentration was adjusted to 50 mM by the addition of 1M Tris-HCl, pH 8.0. The homogenate was centrifuged for 10 min at 37,000×g. The pellets were then washed three times by resuspension and centrifugation using 50 mM Tris-HCl, pH 8.0. The final pellets were resuspended in the Tris-HCl buffer (0.5 ml/brain), pooled and 1 ml aliquots were distributed to microfuge tubes, which were stored at -70° for assay. […]
(§1) Inhibition curves were fit to the two parameter logistic equation for the best-fit estimates of the IC50 using nonlinear least squares curve fitting methods as previously described (Rothman et al. (1993), supra); Jones, S. M. and Rogawski, M. A. Mol. Neuropharmacol. 2: 303-310 (1992)).
(§2) ^a The binding assays for PCP (site 2) and PCP (site 1) were conducte
(§3) as previously reported (Rothman, R. B., et al., In: Multiple Sigma and PC
(§4) Receptor Ligands: Mechanisms for Neuromodulation and Protection 307-330
(§5) (Domino, E. F. and Kamenka, J. M., eds., 1992) using [^3 H]TCP in the
(§6) presence of (+)MK801 for site 2 and [^3 HMK801 for site 1 except that

Assay [1] relates to PCP site 2. In kind it is binding, guinea pig. As for the experimental part:
Large batches of frozen membranes were prepared with minor modifications of published procedures (Rothman, et al. (1989), supra). Twenty to thirty frozen guinea pig brains with cerebellum were thawed for 15 minutes and homogenized with a Polytron in ice-cold 5 mM Tris-HCl, pH 8.0 (10 ml/brain). The homogenate was centrifuged at 37,000×g for 10 minutes, and the pellet was washed by resuspension in the same volume of buffer followed by recentrifugation. The pellets were resuspended in an equal volume of 5 mM Tris-HCl, pH 8.0, and the concentration was adjusted to 50 mM by the addition of 1M Tris-HCl, pH 8.0. The homogenate was centrifuged for 10 min at 37,000×g. The pellets were then washed three times by resuspension and centrifugation using 50 mM Tris-HCl, pH 8.0. The final pellets were resuspended in the Tris-HCl buffer (0.5 ml/brain), pooled and 1 ml aliquots were distributed to microfuge tubes, which were stored at -70° for assay.
The [^3 H]TCP binding assay for PCP site 2 was conducted with minor modifications of published protocols (Rothman, et al. (1989), supra). Briefly, 12×75 mm polystyrene test tubes were prefilled with 100 μl of [^3 H]TCP (2 nM final concentration) in a protease inhibitor cocktail (PIC) containing 5000 nM (+) -MK801, 100 μl of distilled H2 O or drug (in distilled H2 0), 50 μl of buffer (5 mM Tris-HCL, pH 8.0), and 750 μl of membrane (0.5-1.0 mg/ml protein, in 5 mM Tris-HCl, pH 8.0). […] The protease inhibitor cocktail was composed of 25 μg/ml leupeptin, 25 μg/ml chymostatin, 0.1 mM EDTA, and 0.1 mM ethylene glycol-bis-(beta-aminoethyl-ether)-N,N,N',N'-tetraacetic acid (EGTA). The incubation time was 18-24 hours at 4° C. (steady state) in a final volume of 1 ml. Triplicate samples were filtered with an MR24 Brandel Cell Harvester and washed with two 5 ml aliquots of ice cold buffer. Whatman GF/B filters were presoaked in buffer containing 2% polyethylenimine. The tritium retained on the filters was measured using a Taurus scintillation counter at 44% efficiency after an overnight extraction into ICN Cytoscint cocktail. Non specific binding was determined using 10 μM of TCP. Protein was determine using the method of Lowry, et al., supra.
as §1, §2, §3, §4, §5, §6
the [^3 H]TCP assays were terminated after 18-24 hours of incubation

The subject of assay [2] is PCP site 2. The conditions noted are these: guinea pig brain membranes; literature; cited from earlier work.
The mark [3] stands for this setting: Table 1, [^3 H]TCP in presence of (+)MK801, 18-24 hours at 4° C.

“And” between values parts separate entries of the source, which are not always exact repeats. Equal entries are not always repeated. Structures can show the parent of a compound that is named as a salt. Where two headings read alike, the source gives them in different places.

For the compound `CN1[C@@H](Cc2ccc(Cl)cc2)C[C@@H]2Cc3ccccc3[C@@H]21` (racemic) [RTI-4793-45, (2RS,3aSR,8bRS)-1,2,3,3a,4,8b-Hexahydro-2-(4-chlorobenzyl)-1-methylindeno-[1,2-b]pyrrole Hydrochloride], the IC50 was over 2000 nM at PCP site 1 (Table 3, guinea pig membranes) and 254 ± 18 nM with PCP site 2 [1] (Table 3, guinea pig membranes).
In the case of `CN1CC[C@@H]2Cc3ccccc3[C@@H]21` (relative stereo) [3a], in the assay with PCP site 1, the “affinity for PCP site 1 in words” value is “low affinity at both sites”. For the same compound, the IC50 on PCP site 1 (Table 1, [^3 H]MK801) was over 20000 nM; with PCP site 2 [1] (setting [3]), over 10000 nM. Also, in the assay with PCP site 2 [1], the “affinity/selectivity for PCP site 2 in words” value (shortened to “affinity/selectivity”) was “low affinity at both sites”.
`CCOC(=O)[C@H]1C[C@@H]2Cc3ccccc3[C@@H]2N1C` (relative stereo) [3d]: the IC50 on PCP site 1 (Table 1, [^3 H]MK801) is over 20000 nM; in the assay with PCP site 2 [1] (setting [3]), 16700 nM.
For the compound `CC[C@H]1C[C@@H]2Cc3ccccc3[C@@H]2N1C` (relative stereo) [3e], the “affinity for PCP site 1 in words” value with PCP site 1 is recorded as “low affinity at both sites”. Also, the IC50 at PCP site 1 (Table 1, [^3 H]MK801) was over 20000 nM; in the assay on PCP site 2 [1] (setting [3]), 326 ± 49 nM. Besides, the “relative potency for site 2 versus 3b” value in the assay on PCP site 2 [1] (versus 3b) is given as “approximately ten-times less than that of 3b”.
Regarding `CN1[C@H](Cc2c[nH]c3ccccc23)C[C@H]2Cc3ccccc3[C@H]21` (relative stereo) [RTI-4793-44, (2RS, 3aSR, 8bRS) -1,2,3,3a, 4,8b-Hexahydro-2-(3-methanoindole)-1-methylindeno-[1,2-b]pyrrole Hydrochloride], the IC50 on PCP site 1 (Table 3, guinea pig membranes) was over 2000 nM; with PCP site 2 [1] (Table 3, guinea pig membranes), 114 ± 12 nM.
`COc1ccc(C[C@@H]2C[C@H]3Cc4ccccc4[C@H]3N2C)cc1` (relative stereo) [RTI-4793-46, (2RS,3aSR,8bRS)-1,2,3,3a,4,8b-Hexahydro-2-(4-methoxybenzyl)-1-methylindeno[1,2-b1pyrrole Hydrochloride]: the half-inhibitory concentration (IC50) on PCP site 1 (Table 3, guinea pig membranes) was over 2000 nM; with PCP site 2 [1] (Table 3, guinea pig membranes) it was 148 ± 23 nM.
With `c1ccc(CC2CC3CN2Cc2ccccc23)cc1` (single isomer, unassigned; (+)) [(+)-RTI-4793-41], the IC50 on PCP site 1 (Table 3, guinea pig membranes) is over 2000 nM; in the assay with PCP site 2 [1] (Table 3, guinea pig membranes), 4.4 ± 0.7 nM; in the assay with PCP site 2 [1] (Table 3, guinea pig membranes, listed as (+) optical isomer of RTI-4793-41), 4.4 nM.
In the case of `c1ccc(CC2CC3CN2Cc2ccccc23)cc1` (single isomer, unassigned; (-)) [(-)-RTI-4793-41], the IC50 on PCP site 1 (Table 3, guinea pig membranes) was over 2000 nM; with PCP site 2 [1] (Table 3, guinea pig membranes) it was 28.9 ± 3 nM.
Taken in the same sequence, the figures for `CN1[C@@H](Cc2ccccc2)C[C@@H]2Cc3ccccc3[C@@H]21.O=C(O)c1ccc(O)cc1O` [(-)-RTI-4793-14] were over 2000 nM and 316 ± 58.7 nM.
`c1ccc(CC2CC3CN2Cc2ccccc23)cc1` (stereo not drawn) [RTI-4793-41]: the concentration for half-maximal inhibition (IC50) at PCP site 1 (Table 3, guinea pig membranes) was over 2000 nM; with PCP site 2 [1] (Table 3, guinea pig membranes), 15 nM and 15.6 nM. Further, the “affinity/selectivity” value in the assay with PCP site 2 [1] was “high affinity and selectivity”.
In the case of `BrC1CC2CN(Cc3ccccc32)C1c1ccccc1` (stereo not drawn) [RTI-4793-47], the IC50 on PCP site 1 (Table 3, guinea pig membranes) was over 2000 nM; in the assay on PCP site 2 [1] (Table 3, guinea pig membranes), 68.8 ± 11.5 nM.
Regarding `c1ccc(C2CCC3CN2Cc2ccccc23)cc1` (stereo not drawn) [RTI-4793-48], the half-maximal inhibitory concentration (IC50) was over 2000 nM on PCP site 1 (Table 3, guinea pig membranes); 42 nM and 42.3 nM in the assay with PCP site 2 [1] (Table 3, guinea pig membranes). In the assay on PCP site 2 [1], the “affinity/selectivity” value was “high affinity and selectivity”.
For `COc1ccc(CC2CC3CN2Cc2ccccc23)cc1` (stereo not drawn) [RTI-4793-49], the 50% inhibitory concentration (IC50) on PCP site 1 (Table 3, guinea pig membranes) is over 2000 nM; in the assay with PCP site 2 [1] (Table 3, guinea pig membranes), 106 ± 13.8 nM.
Taken in the same sequence, the figures for `Fc1ccc(CC2CC3CN2Cc2ccccc23)cc1` (stereo not drawn) [RTI-4793-50] were over 2000 nM and 73.5 ± 9 nM.
Taken in the same sequence, the figures for `c1ccc(CCC2CC3CN2Cc2ccccc23)cc1` (stereo not drawn) [RTI-4793-51] were over 2000 nM and 289 ± 22 nM.
Consider `c1ccc(CCCCC2CC3CN2Cc2ccccc23)cc1` (stereo not drawn) [RTI-4793-52], for which the concentration for half-maximal inhibition (IC50) on PCP site 1 (Table 3, guinea pig membranes) was over 2000 nM; with PCP site 2 [1] (Table 3, guinea pig membranes), 302 ± 28 nM.
The like results for `c1csc(CC2CC3CN2Cc2ccccc23)c1` (stereo not drawn) [RTI-4793-55] were, in that order, over 2000 nM and 43.2 ± 6.58 nM.
Turning to `c1csc(C2(N3CCCCC3)CCCCC2)c1` [TCP], the “binding of [^3 H]TCP to two sites (PCP site 1 and PCP site 2)” value with PCP site 2 [2] was “high affinity”.
